By IC50 is commonly meant the concentration that gives 50% inhibition.

The target in the first assay is T1, myeloperoxidase (Homo sapiens, UniProt P05164).
T1 sequence (P05164 49-745): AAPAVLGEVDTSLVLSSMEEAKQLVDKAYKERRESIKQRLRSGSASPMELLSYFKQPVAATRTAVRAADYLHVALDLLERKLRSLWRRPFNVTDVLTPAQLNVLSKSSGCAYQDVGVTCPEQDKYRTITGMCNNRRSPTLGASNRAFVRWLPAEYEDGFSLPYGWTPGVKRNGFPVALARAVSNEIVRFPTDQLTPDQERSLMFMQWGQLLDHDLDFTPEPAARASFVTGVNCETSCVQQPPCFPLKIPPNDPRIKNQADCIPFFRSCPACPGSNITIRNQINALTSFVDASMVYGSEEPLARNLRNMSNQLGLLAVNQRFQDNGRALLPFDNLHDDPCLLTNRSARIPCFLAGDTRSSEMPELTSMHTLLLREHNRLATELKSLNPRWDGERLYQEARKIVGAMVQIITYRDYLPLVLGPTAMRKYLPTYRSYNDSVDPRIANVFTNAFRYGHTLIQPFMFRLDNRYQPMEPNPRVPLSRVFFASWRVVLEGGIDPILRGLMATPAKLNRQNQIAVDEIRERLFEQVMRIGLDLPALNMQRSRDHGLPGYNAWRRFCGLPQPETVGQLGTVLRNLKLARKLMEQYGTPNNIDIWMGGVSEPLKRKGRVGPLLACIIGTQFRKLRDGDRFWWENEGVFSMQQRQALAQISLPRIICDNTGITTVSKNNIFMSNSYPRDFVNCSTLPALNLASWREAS
The assay can be described thus: MPO Peroxidation Assay (Amplex Red Assay). To be noted: Amplex Red Assay IC50 value (μM), potency range class. It counts as biochemical.
`COc1cccc(C(Cc2ccccc2)c2cc(N)nc3[nH]nnc23)c1` (stereo not shown) [Example 34, 7-(1-(3-methoxyphenyl)-2-phenylethyl)-3H-[1,2,3]triazolo[4,5-b]pyridin-5-amine]: the IC50 was in the range of 0.101 to 0.999 µM.

Staying with this assay, now noted: potency range class, read-out: Amplex Red Assay IC50 value.
On to `CC(c1ccccc1)c1cc(N)nc2[nH]nnc12` (racemic) [Example 1, 7-(1-phenylethyl)-3H-[1,2,3]triazolo[4,5-b]pyridin-5-amine], for which the half-maximal inhibitory concentration (IC50) lay in the range of 0.001 to 0.1 µM.
For `CC(NCCC(c1ccccc1)c1cc(N)nc2[nH]nnc12)c1ccccc1` (single isomer, unassigned) [Example 13, 7-(1-phenyl-3-((1-phenylethyl)amino)propyl)-3H-[1,2,3]triazolo[4,5-b]pyridin-5-amine], the IC50 is 0.101 to 0.999 µM.
Same read-out and setting: with `Nc1cc(C(CCOC2CCc3ccccc32)c2ccccc2)c2nn[nH]c2n1` (single isomer, unassigned) [Example 232, 7-(3-((2,3-dihydro-1H-inden-1-yl)oxy)-1-phenylpropyl)-3H-[1,2,3]triazolo[4,5-b]pyridin-5-amine] the figure was 0.101 to 0.999 µM; with `CCCC(c1ccccc1)c1cc(N)nc2[nH]nnc12` (stereo not shown) [Example 3, 7-(1-phenylbutyl)-3H-[1,2,3]triazolo [4,5-b]pyridin-5-amine], 0.001 to 0.1 µM.
With `CC(C)CC(c1ccccc1)c1cc(N)nc2[nH]nnc12` (stereo not shown) [Example 4, 7-(3-methyl-1-phenylbutyl)-3H-[1,2,3]triazolo[4,5-b]pyridin-5-amine], the IC50 lay in the range of 0.101 to 0.999 µM.
Take `CCC(c1ccccc1)c1cc(N)nc2[nH]nnc12` (stereo not shown) [Example 5, 7-(1-phenylpropyl)-3H-[1,2,3]triazolo [4,5-b]pyridin-5-amine]: the IC50 fell in the range of 0.101 to 0.999 µM.
Consider `Nc1cc(C(CCC2CCCCC2)c2ccccc2)c2nn[nH]c2n1` (stereo not shown) [Example 6, 7-(3-cyclohexyl-1-phenylpropyl)-3H-[1,2,3]triazolo[4,5-b]pyridin-5-amine], for which the IC50 lay in the range of 0.101 to 0.999 µM.
Regarding `Nc1cc(C(CCNC2CCCCC2)c2ccccc2)c2nn[nH]c2n1` (stereo not shown) [Example 19, 7-[3-(cyclohexylamino)-1-phenylpropyl]-3H-[1,2,3]triazolo[4,5-b] pyridin-5-amine], the half-maximal inhibitory concentration (IC50) was 0.101 to 0.999 µM.
As to `Nc1cc(C(Cc2ccccc2Cl)c2ccccc2)c2nn[nH]c2n1` (stereo not shown) [Example 31, 7-[2-(2-chlorophenyl)-1-phenylethyl]-3H-[1,2,3]triazolo [4,5-b]pyridin-5-amine], the IC50 was in the range of 0.101 to 0.999 µM.
`Nc1cc(C(Cc2cccc(Cl)c2)c2ccccc2)c2nn[nH]c2n1` (stereo not shown) [Example 32, 7-[2-(3-chlorophenyl)-1-phenylethyl]-3H-[1,2,3]triazolo [4,5-b]pyridin-5-amine]: the IC50 lay in the range of 0.101 to 0.999 µM.
Still for that read-out and setting: with `Nc1cc(C(Cc2ccc(Cl)cc2)c2ccccc2)c2nn[nH]c2n1` (stereo not shown) [Example 33, 7-[2-(4-chlorophenyl)-1-phenylethyl]-3H-[1,2,3]triazolo [4,5-b]pyridin-5-amine] the figure was 0.101 to 0.999 µM; with `Nc1cc(C(Cc2ccccc2)c2cccc(Cl)c2)c2nn[nH]c2n1` (stereo not shown) [Example 35, 7-[1-(3-chlorophenyl)-2-phenylethyl]-3H-[1,2,3]triazolo [4,5-b]pyridin-5-amine], 0.101 to 0.999 µM; with `Cc1cccc(C(Cc2ccccc2)c2cc(N)nc3[nH]nnc23)c1` (stereo not shown) [Example 36, 7-[1-(3-methylphenyl)-2-phenylethyl]-3H-[1,2,3]triazolo [4,5-b]pyridin-5-amine], 0.101 to 0.999 µM.
In the case of `Nc1cc(C(CCNC2CCC(c3ccc(Cl)c(Cl)c3)c3ccccc32)c2ccccc2)c2nn[nH]c2n1` (stereo not shown) [Example 122, 7-(3-{[4-(3,4-dichlorophenyl)-1,2,3,4-tetrahydronaphthalen-1-yl]amino}-1-phenylpropyl)-3H-[1,2,3]triazolo[4,5-b]pyridin-5-amine], the half-inhibitory concentration (IC50) is 0.001 to 0.1 µM.
Regarding `Nc1cc(C(CCO)c2ccccc2)c2nn[nH]c2n1` (stereo not shown) [Example 174, 3-{5-amino-3H-[1,2,3]triazolo [4,5-b]pyridin-7-yl}-3-phenylpropan-1-ol], the IC50 was in the range of 0.101 to 0.999 µM.

These data come from patent publication US11008317B2, “Triazolopyridine inhibitors of myeloperoxidase and/or EPX” (priority 2016, dated 2021).
